Source: patent US20220089733A1, “NOVEL APPROACH FOR TREATMENT OF CANCER USING IMMUNOMODULATION” (BioXcel Therapeutics, Inc., priority 2018, published 2022)

What was measured:
[1] = in vivo; cited from earlier work
melanoma = melanoma patients; cited from earlier work
CYP3A4 [2] = biological target: CYP3A4 (Homo sapiens, UniProt P08684)
CYP1A2 [3] = system: CYP1A2
CYP2C9 = CYP2C9 (Homo sapiens, UniProt P11712)
CYP2C8 = biological target: T1, CYP2C8 (Homo sapiens, UniProt P10632)
T1 sequence (P10632 1-490): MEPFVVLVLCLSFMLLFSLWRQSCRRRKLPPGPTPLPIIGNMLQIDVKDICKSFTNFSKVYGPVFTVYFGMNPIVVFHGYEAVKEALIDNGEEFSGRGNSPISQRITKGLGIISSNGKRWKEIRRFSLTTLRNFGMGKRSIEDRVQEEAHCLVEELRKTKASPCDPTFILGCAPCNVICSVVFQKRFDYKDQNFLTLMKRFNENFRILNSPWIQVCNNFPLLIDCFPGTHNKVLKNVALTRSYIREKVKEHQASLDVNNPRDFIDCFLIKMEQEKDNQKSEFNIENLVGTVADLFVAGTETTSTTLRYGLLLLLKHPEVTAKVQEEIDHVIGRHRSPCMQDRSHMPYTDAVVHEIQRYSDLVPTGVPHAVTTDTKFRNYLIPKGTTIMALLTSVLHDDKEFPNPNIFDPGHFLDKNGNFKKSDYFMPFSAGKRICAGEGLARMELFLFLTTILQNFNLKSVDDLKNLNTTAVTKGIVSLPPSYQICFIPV

CYP2C19 = CYP2C19 (Homo sapiens, UniProt P33261)
Sequence of CYP2C19 (P33261 whole entry): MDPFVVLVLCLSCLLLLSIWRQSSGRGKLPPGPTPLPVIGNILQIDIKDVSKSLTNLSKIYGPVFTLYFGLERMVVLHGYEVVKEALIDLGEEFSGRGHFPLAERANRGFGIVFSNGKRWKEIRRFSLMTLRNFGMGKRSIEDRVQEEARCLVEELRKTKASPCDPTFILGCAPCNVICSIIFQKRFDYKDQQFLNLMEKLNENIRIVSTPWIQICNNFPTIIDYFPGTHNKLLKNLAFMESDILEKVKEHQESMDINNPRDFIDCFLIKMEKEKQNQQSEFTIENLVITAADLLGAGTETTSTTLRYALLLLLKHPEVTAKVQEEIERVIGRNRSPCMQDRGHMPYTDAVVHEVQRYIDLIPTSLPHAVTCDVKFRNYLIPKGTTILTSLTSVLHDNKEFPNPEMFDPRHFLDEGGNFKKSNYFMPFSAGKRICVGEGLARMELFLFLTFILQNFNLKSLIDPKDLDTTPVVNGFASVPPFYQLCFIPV

CYP1A2 [4] = biological target: CYP1A2 (Homo sapiens, UniProt P05177); conditions: human liver CYP isoenzymes; preclinical studies
Sequence of CYP1A2 (Homo sapiens, UniProt P05177) (P05177 whole entry): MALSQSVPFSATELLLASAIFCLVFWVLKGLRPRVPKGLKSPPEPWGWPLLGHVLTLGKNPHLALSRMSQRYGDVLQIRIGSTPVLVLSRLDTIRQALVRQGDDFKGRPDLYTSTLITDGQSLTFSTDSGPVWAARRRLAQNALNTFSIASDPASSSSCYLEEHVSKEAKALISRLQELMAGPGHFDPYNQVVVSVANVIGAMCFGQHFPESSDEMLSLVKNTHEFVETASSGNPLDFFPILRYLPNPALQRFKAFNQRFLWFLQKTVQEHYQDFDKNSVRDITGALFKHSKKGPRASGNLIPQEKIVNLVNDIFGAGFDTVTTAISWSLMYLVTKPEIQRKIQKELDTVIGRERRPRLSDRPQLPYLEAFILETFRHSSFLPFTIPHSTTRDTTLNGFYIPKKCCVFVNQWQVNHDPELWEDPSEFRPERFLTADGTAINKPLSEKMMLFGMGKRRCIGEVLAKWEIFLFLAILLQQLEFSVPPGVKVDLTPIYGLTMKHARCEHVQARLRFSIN

CYP2D6 = CYP2D6 (Homo sapiens, UniProt P10635)
Sequence of CYP2D6 (P10635 whole entry): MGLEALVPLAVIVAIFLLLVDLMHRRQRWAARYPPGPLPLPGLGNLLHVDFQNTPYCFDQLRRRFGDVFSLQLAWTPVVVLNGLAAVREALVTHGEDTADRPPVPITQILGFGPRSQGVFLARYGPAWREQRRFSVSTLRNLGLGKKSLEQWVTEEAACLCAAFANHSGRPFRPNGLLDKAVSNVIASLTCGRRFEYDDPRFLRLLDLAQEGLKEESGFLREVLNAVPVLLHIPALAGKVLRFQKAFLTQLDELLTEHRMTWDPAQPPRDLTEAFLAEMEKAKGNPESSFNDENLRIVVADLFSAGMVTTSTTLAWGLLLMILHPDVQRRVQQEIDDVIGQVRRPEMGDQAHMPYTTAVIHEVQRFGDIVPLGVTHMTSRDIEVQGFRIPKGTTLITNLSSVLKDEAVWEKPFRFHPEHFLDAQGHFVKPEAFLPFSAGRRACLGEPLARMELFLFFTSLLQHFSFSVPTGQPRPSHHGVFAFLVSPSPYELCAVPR

CYP3A4 [5] = system: CYP3A4

Sequence of CYP3A4 (Homo sapiens, UniProt P08684) (P08684 whole entry): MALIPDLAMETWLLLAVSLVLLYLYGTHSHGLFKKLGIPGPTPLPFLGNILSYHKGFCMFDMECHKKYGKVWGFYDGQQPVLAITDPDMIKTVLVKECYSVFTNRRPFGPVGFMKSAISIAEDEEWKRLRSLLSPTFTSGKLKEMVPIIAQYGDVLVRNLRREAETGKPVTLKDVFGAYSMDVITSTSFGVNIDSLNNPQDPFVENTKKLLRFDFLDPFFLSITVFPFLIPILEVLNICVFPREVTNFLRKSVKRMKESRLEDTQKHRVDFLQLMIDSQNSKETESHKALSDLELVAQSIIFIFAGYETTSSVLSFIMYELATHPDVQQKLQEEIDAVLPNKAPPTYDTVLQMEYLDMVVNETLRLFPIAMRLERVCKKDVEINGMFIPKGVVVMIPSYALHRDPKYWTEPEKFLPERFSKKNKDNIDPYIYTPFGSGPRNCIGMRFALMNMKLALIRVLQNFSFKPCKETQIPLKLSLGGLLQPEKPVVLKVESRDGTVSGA
Sequence of CYP2C9 (P11712 whole entry): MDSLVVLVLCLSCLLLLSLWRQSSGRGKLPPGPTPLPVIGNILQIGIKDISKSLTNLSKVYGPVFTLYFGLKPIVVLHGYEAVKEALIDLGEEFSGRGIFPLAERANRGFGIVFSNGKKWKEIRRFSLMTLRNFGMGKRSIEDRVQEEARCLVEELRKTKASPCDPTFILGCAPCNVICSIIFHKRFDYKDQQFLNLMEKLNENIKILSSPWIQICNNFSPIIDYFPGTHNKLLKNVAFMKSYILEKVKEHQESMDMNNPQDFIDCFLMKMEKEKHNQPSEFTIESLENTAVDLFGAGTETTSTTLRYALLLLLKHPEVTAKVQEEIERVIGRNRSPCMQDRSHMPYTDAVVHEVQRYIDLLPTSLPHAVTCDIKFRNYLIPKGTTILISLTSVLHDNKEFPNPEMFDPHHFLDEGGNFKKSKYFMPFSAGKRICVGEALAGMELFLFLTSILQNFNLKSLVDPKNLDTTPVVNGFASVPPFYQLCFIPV

## CC(C)[C@H](N)C(=O)N1CCC[C@H]1B(O)O [Talabostat, [(2R)-1-[(2S)-2-amino-3-methylbutanoyl]pyrrolidin-2-yl]boronic acid]
[1]
  Most common / most frequently observed adverse events: edema/peripheral swelling, hypotension, hypovolemia, and dizziness

## Ipilimumab: CTLA-4 antagonist antibody, checkpoint inhibitor
melanoma
  Response rate: 11%

## Nivolumab: PD-1 antagonist antibody, checkpoint inhibitor
melanoma
  Response rate: 32%

## Talabostat mesylate
CYP3A4 [2]
  Potential to inhibit CYP3A4: low potential
CYP1A2 [3]
  Induction of CYP1A2: did not induce
[1]
  Most common / most frequently observed adverse events: edema/peripheral swelling, hypotension, dizziness, and hypovolemia
CYP2C9
  Potential to inhibit CYP2C9: low potential
CYP2C8
  Potential to inhibit CYP2C8: low potential
CYP2C19
  Potential to inhibit CYP2C19: low potential
CYP1A2 [4]
  Potential to inhibit CYP1A2: low potential
CYP2D6
  Potential to inhibit CYP2D6: low potential
CYP3A4 [5]
  Induction of CYP3A4: did not induce
